Where “and” joins values, the source holds several entries; their conditions need not be identical. Identical values can stand only once. Inconclusive results and toxic doses are left out. The calls were made as follows: active = survival T/C of 150% or more; inactive = T/C below 125% in these data.
Tested on: P388 leukemia ip, CD2F1 mice, survival T/C
Assay: NCI In Vivo Anticancer Drug Screen. Data for tumor model P388 Leukemia (intraperitoneal) in CD2F1 (CDF1) mice
Settings: endpoint: median survival time, higher = longer survival
Method in brief: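 Mice carrying the transplanted tumor received test compound or vehicle. Survival was recorded in each group, and the value is the treated-group measurement divided by that of the vehicle-treated control group.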

[1] = dose: 25.0 mg/kg/injection, schedule: Q01DX009 (ip), vehicle: saline with Tween-80
[2] = dose: 50.0 mg/kg/injection, schedule: Q01DX009 (ip), vehicle: Klucel (hydroxypropylcellulose) (HPC)
[3] = dose: 50.0 mg/kg/injection, schedule: Q01DX009 (ip), vehicle: saline with Tween-80
[4] = dose: 100.0 mg/kg/injection, schedule: Q01DX009 (ip), vehicle: Klucel (hydroxypropylcellulose) (HPC)
[5] = dose: 100.0 mg/kg/injection, schedule: Q01DX009 (ip), vehicle: saline with Tween-80
[6] = dose: 100.0 mg/kg/injection, schedule: Q01DX005 (ip), vehicle: saline with Tween-80
[7] = dose: 200.0 mg/kg/injection, schedule: Q01DX009 (ip), vehicle: saline with Tween-80
[8] = dose: 400.0 mg/kg/injection, schedule: Q01DX009 (ip), vehicle: saline with Tween-80
[9] = dose: 5.0 mg/kg/injection, schedule: Q01DX009 (ip), vehicle: saline with Tween-80
[10] = dose: 10.0 mg/kg/injection, schedule: Q01DX009 (ip), vehicle: saline with Tween-80
[11] = dose: 100.0 mg/kg/injection, schedule: Q04DX002 (ip), vehicle: saline with Tween-80
[12] = dose: 400.0 mg/kg/injection, schedule: Q04DX002 (ip), vehicle: saline with Tween-80
[13] = dose: 120.0 mg/kg/injection, schedule: Q01DX005 (ip), vehicle: saline with Tween-80

Measured: T/C

CC#CCOCC(O)CO (configuration not stated)
inactive: dose: 12.5 mg/kg/injection, schedule: Q01DX009 (ip), vehicle: water 105 % of control | dose: 25.0 mg/kg/injection, schedule: Q01DX009 (ip), vehicle: water 108 % of control | dose: 50.0 mg/kg/injection, schedule: Q01DX009 (ip), vehicle: water 121 % of control | dose: 67.0 mg/kg/injection, schedule: Q01DX009 (ip), vehicle: water 120 % of control

COC(=O)C(Cc1c[nH]c2ccccc12)N1CN(C)c2ccccc2C1=O (configuration not stated)
inactive: dose: 60.0 mg/kg/injection, schedule: Q01DX005 (ip), vehicle: Klucel (hydroxypropylcellulose) (HPC) 98 % of control | dose: 120.0 mg/kg/injection, schedule: Q01DX005 (ip), vehicle: Klucel (hydroxypropylcellulose) (HPC) 98 % of control | dose: 240.0 mg/kg/injection, schedule: Q01DX005 (ip), vehicle: Klucel (hydroxypropylcellulose) (HPC) 90 % of control

COc1ccc(-c2coc3cc(O)cc(O)c3c2=O)cc1
inactive: [1] 94 % of control | [2] 110 % of control | [3] 97 % of control | [4] 107 % of control | [5] 93 % of control | dose: 200.0 mg/kg/injection, schedule: Q01DX009 (ip), vehicle: Klucel (hydroxypropylcellulose) (HPC) 104 % of control | dose: 400.0 mg/kg/injection, schedule: Q01DX009 (ip), vehicle: Klucel (hydroxypropylcellulose) (HPC) 96 % of control

CCOC(=O)c1cc(-c2cc(C(=O)OCC)c3ccccc3n2)nc2ccccc12
inactive: dose: 6.25 mg/kg/injection, schedule: Q01DX005 (ip), vehicle: saline with Tween-80 96 % of control | dose: 12.5 mg/kg/injection, schedule: Q01DX005 (ip), vehicle: saline with Tween-80 95 % of control | dose: 25.0 mg/kg/injection, schedule: Q01DX005 (ip), vehicle: saline with Tween-80 100 % of control | [6] 86 % of control

CCCC(C(CC)CNC(=O)Nc1cccc2ccccc12)N(C)C(=O)Nc1cccc2ccccc12 (configuration not stated)
inactive: [3] 93 % of control | [5] 92 % of control | [7] 94 % of control | [8] 99 % of control

[C-]#[N+]C(C)Cc1ccccc1 (configuration not stated)
inactive: dose: 1.56 mg/kg/injection, schedule: Q04DX003 (ip), vehicle: saline 101 % of control | dose: 3.13 mg/kg/injection, schedule: Q04DX003 (ip), vehicle: saline 103 % of control | dose: 6.25 mg/kg/injection, schedule: Q04DX003 (ip), vehicle: saline 103 % of control | dose: 12.5 mg/kg/injection, schedule: Q04DX003 (ip), vehicle: saline 105 % of control | dose: 25.0 mg/kg/injection, schedule: Q04DX003 (ip), vehicle: saline 104 % of control

COC1=C/C(=C\C=C\c2ccccc2)C(OC)=CC1=O
inactive: dose: 2.5 mg/kg/injection, schedule: Q01DX009 (ip), vehicle: saline with Tween-80 102 % of control | [9] 104 % of control | [10] 108 % of control

Cc1ccc(-c2n[nH]c(=O)c(C#N)c2-c2ccc(C)cc2)cc1
inactive: [11] 88 % of control | [12] 88 % of control

[O]=[Ge]=[O]
inactive: dose: 50.0 mg/kg/injection, schedule: Q01DX009 (ip), vehicle: saline 111 % of control | dose: 100.0 mg/kg/injection, schedule: Q01DX009 (ip), vehicle: saline 104 % of control | dose: 200.0 mg/kg/injection, schedule: Q01DX009 (ip), vehicle: saline 111 % of control

Brc1ccc2[nH]c3nc(N/N=C/c4cccnc4)nnc3c2c1
inactive: [11] 93 % of control | dose: 200.0 mg/kg/injection, schedule: Q04DX002 (ip), vehicle: saline with Tween-80 91 % of control | [12] 99 % of control

O=C(O)C1=COC(OC2OC(CO)C(O)C(O)C2O)C2C(CO)=CCC12 (configuration not stated)
inactive: [9] 99 % of control and 108 % of control | [10] 108 % of control and 96 % of control | dose: 20.0 mg/kg/injection, schedule: Q01DX009 (ip), vehicle: saline with Tween-80 99 % of control and 104 % of control | dose: 40.0 mg/kg/injection, schedule: Q01DX009 (ip), vehicle: saline with Tween-80 95 % of control | dose: 80.0 mg/kg/injection, schedule: Q01DX009 (ip), vehicle: saline with Tween-80 99 % of control

Cc1cc(=O)n2c(n1)sc1ccc3ccccc3c12
inactive: dose: 60.0 mg/kg/injection, schedule: Q01DX005 (ip), vehicle: saline with Tween-80 100 % of control | [13] 100 % of control | dose: 240.0 mg/kg/injection, schedule: Q01DX005 (ip), vehicle: saline with Tween-80 97 % of control

CC(C)(C)c1cc(C2C(=O)c3ccccc3C2=O)cc(C(C)(C)C)c1O
inactive: dose: 100.0 mg/kg/injection, schedule: Q04DX002 (ip), vehicle: saline 110 % of control | dose: 200.0 mg/kg/injection, schedule: Q04DX002 (ip), vehicle: saline 107 % of control | dose: 400.0 mg/kg/injection, schedule: Q04DX002 (ip), vehicle: saline 107 % of control

CC(=O)N1CCN(C(C)=O)N(C(C)=O)CCN1C(C)=O
inactive: dose: 100.0 mg/kg/injection, schedule: Q04DX003 (ip), vehicle: suspension in saline 94 % of control | dose: 200.0 mg/kg/injection, schedule: Q04DX003 (ip), vehicle: suspension in saline 97 % of control | dose: 400.0 mg/kg/injection, schedule: Q04DX003 (ip), vehicle: suspension in saline 94 % of control

O=C1C2C3C=CC(C2C(=O)N1CCl)C1C2C(=O)N(CCl)C(=O)C2C31 (configuration not stated)
inactive: dose: 6.25 mg/kg/injection, schedule: Q01DX009 (ip), vehicle: saline with Tween-80 105 % of control | dose: 12.5 mg/kg/injection, schedule: Q01DX009 (ip), vehicle: saline with Tween-80 103 % of control | [1] 103 % of control | [3] 107 % of control and 114 % of control | [5] 107 % of control and 116 % of control | [7] 115 % of control

Cc1ccc(S(=O)CC(O)c2ccccc2)cc1 (configuration not stated)
inactive: [3] 110 % of control | [5] 101 % of control | [7] 100 % of control

CC1(C)CC(OP(=O)(OC2CC(C)(C)N(O)C(C)(C)C2)OC2CC(C)(C)N(O)C(C)(C)C2)CC(C)(C)N1O
inactive: dose: 100.0 mg/kg/injection, schedule: Q04DX002 (ip), vehicle: Klucel (hydroxypropylcellulose) (HPC) 92 % of control | dose: 200.0 mg/kg/injection, schedule: Q04DX002 (ip), vehicle: Klucel (hydroxypropylcellulose) (HPC) 99 % of control | dose: 400.0 mg/kg/injection, schedule: Q04DX002 (ip), vehicle: Klucel (hydroxypropylcellulose) (HPC) 104 % of control

CCN(C(=S)Nc1cccc(C(F)(F)F)c1)c1ccccc1
inactive: [2] 101 % of control | [4] 108 % of control

CCc1nc(N)nc(N)c1-c1ccc(Cl)c(N=NN(C)C)c1
inactive: dose: 50.0 mg/kg/injection, schedule: Q01DX005 (ip), vehicle: saline with Tween-80 92 % of control | [6] 97 % of control | dose: 200.0 mg/kg/injection, schedule: Q01DX005 (ip), vehicle: saline with Tween-80 105 % of control

c1ccc2cc(N3CCOCC3)ccc2c1
inactive: [5] 116 % of control | [7] 119 % of control | [8] 116 % of control

COC(=O)NC(=Nc1cccc(C(=O)c2ccc3nc(NC(=O)OC)[nH]c3c2)c1)NC(=O)OC
inactive: [13] 90 % of control

Cc1cccc2c(=O)n(C(=O)c3ccccc3)c(N)nc12
inactive: dose: 25.0 mg/kg/injection, schedule: Q01DX001 (ip), vehicle: saline with Tween-80 88 % of control | dose: 50.0 mg/kg/injection, schedule: Q01DX001 (ip), vehicle: saline with Tween-80 90 % of control | dose: 100.0 mg/kg/injection, schedule: Q01DX001 (ip), vehicle: saline with Tween-80 89 % of control | dose: 200.0 mg/kg/injection, schedule: Q01DX001 (ip), vehicle: saline with Tween-80 93 % of control

Reference: PubChem BioAssay AID330 (DTP/NCI, 2004)
